In one data set the target is human FGFR2 (Homo sapiens (Human), UniProt P21802). The data set is described as follows: 33P isotope-labeled kinase activity test (Reaction Biology Corp), FGFR2. The data set is classed as biochemical. Particulars: ATP 5 μM. The procedure:
(§1) The IC50 value was determined using ^33P isotope-labeled kinase activity test (Reaction Biology Corp) to evaluate the inhibitory ability of the compounds to be tested on human FGFR1, FGFR2 and VEGFR2.
(§2) Buffer conditions: 20 mM Hepes (pH 7.5), 10 mM MgCl2, 1 mM EGTA, 0.02% Brij35, 0.02 mg/mL BSA, 0.1 mM Na3VO4, 2 mM DTT, 1% DMSO.
(§3) Test steps: At room temperature, the compounds to be tested were dissolved in DMSO to prepare a 10 mM solution for use. The substrate was dissolved in the newly-prepared buffer, and the kinase to be tested was added thereto and mixed well. The DMSO solution in which the compounds to be tested were dissolved was added to the above-mentioned homogeneous reaction mixture using acoustic technology (Echo 550). […] After incubating for 15 minutes, ^33P-ATP (activity: 0.01 μCi/μL, with corresponding concentration listed in Table 4) was added to the reaction mixture to start the reaction. […] The kinase activity data was expressed by comparing the kinase activity of the groups containing the compounds to be tested with that of the blank group (containing only DMSO).

A further data set has as its target human VEGFR2 (Homo sapiens (Human), UniProt P35968). In words: 33P isotope-labeled kinase activity test (Reaction Biology Corp), VEGFR2. The settings on record: ATP 10 μM. The data set is classed as biochemical. How it is done: as §1, §2, §3
A further data set concerns the target human FGFR1 (Homo sapiens (Human), UniProt P11362). In words: 33P isotope-labeled kinase activity test (Reaction Biology Corp), FGFR1. In kind it is biochemical. Particulars: ATP 5 μM. How it is done:
as §1, §2, §3

The nature of data set [1]: Evaluation of the pharmacokinetics in female Balb/c mice (IV and PO). The settings on record: for Tlast / AUC(0-inf) / AUC(0-t) / clearance / half-life / MRT last / Vd / bioavailability / Tmax / C0 / Cmax: female Balb/c mice; for AUC(0-inf) / AUC(0-t) / clearance / half-life / MRT last / Vd / bioavailability / Tmax / C0 / Cmax: mouse, plasma; for MRT last: read-out: MRT0-last; for Vd: read-out: Vdss; for bioavailability: read-out: F (bioavailability). In kind it is in vivo. How it is done: […] […] About 30 μL blood samples were collected from the jugular vein at 0.0833, 0.25, 0.5, 1.0, 2.0, 4.0, 8.0, 24 h after administration and from the tail vein at 0.25, 0.5, 1.0, 2.0, 4.0, 8.0, 24 h after administration, and the blood samples were put in an anticoagulation tube containing EDTA-K2, the plasma was separated by centrifugation. The LC-MS/MS method was used to determine the blood drug concentration, the WinNonlin™ Version 6.3 (Pharsight, Mountain View, CA) pharmacokinetic software was used to calculate the relevant pharmacokinetic parameters by the non-compartmental model linear logarithmic ladder method.

The test system of data set [2] is human gastric cancer SNU-16. In words: Anti-tumor activity in mouse subcutaneous xenograft tumor model of human gastric cancer SNU-16. In kind it is in vivo, nude mice. Particulars: PO 10/20/40 mg/kg QD (20 mg/kg from day 8, 40 mg/kg from day 17). How it is done:
To study the anti-tumor effect of the compounds of the present disclosure in a mouse subcutaneous xenograft tumor model of human gastric cancer SNU-16.
Preparation of tumor tissues: SNU-16 cells were routinely cultured in an RPMI-1640 culture medium containing 10% fetal bovine serum under the conditions of 5% CO2, 37° C. and saturated humidity. According to cell growth, the cells were passaged or refilled 1 to 2 times a week with a passage ratio of 1:3 to 1:4.
SNU-16 cells at the logarithmic growth phase were collected, counted and then resuspended in a 50% serum-free RPMI-1640 culture medium and 50% Matrigel, and cell concentration was adjusted to 4×10^7 cells/mL; the cells were placed in an ice box, and the cell suspension was suctioned with a 1 mL syringe, and subcutaneously injected into the anterior right axillary of nude mice, each animal was inoculated with 200 μL (8×10^6 cells/mouse) to establish a SNU-16 xenograft model. The animal status was observed regularly, and the tumor diameter was measured with an electronic vernier caliper. […]
3) The tumor diameter was measured twice a week to calculate the tumor volume, and the animal body weight was weighed and recorded. […]
The anti-tumor efficacy of the compounds was evaluated by TGI (%) or relative tumor proliferation rate T/C (%). […] The relative tumor volume (RTV) was calculated according to the results of the tumor measurement. […]
On the technique in general: A xenograft is tissue or cells of one species grown in another, often human tumour cells in immunodeficient mice.

Where a name gives a salt, the structure may show the parent alone. Read-outs that look alike come from different tables or passages of the source.

Chain of human FGFR1 (P11362 22-822): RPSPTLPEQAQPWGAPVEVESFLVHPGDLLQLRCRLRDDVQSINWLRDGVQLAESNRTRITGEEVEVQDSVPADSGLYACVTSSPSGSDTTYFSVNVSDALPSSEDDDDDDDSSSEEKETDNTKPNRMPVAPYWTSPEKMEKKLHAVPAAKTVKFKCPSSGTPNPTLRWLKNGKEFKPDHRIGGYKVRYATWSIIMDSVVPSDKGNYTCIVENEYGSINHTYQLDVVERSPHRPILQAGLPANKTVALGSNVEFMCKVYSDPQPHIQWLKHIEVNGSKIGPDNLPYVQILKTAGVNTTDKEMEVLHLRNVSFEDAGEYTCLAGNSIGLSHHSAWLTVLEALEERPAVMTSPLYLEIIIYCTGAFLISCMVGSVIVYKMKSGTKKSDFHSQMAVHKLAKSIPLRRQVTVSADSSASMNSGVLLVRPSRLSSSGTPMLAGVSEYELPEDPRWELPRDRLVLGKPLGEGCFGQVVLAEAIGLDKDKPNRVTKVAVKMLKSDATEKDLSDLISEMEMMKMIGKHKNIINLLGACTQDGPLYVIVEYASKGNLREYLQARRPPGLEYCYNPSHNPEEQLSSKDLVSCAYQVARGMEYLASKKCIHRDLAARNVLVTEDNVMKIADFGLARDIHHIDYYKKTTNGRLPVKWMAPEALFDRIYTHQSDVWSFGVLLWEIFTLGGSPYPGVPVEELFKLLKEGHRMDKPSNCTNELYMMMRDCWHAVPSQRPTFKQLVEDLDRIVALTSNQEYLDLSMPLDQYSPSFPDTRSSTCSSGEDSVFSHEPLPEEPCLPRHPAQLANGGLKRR
Chain of human VEGFR2 (P35968 20-1356): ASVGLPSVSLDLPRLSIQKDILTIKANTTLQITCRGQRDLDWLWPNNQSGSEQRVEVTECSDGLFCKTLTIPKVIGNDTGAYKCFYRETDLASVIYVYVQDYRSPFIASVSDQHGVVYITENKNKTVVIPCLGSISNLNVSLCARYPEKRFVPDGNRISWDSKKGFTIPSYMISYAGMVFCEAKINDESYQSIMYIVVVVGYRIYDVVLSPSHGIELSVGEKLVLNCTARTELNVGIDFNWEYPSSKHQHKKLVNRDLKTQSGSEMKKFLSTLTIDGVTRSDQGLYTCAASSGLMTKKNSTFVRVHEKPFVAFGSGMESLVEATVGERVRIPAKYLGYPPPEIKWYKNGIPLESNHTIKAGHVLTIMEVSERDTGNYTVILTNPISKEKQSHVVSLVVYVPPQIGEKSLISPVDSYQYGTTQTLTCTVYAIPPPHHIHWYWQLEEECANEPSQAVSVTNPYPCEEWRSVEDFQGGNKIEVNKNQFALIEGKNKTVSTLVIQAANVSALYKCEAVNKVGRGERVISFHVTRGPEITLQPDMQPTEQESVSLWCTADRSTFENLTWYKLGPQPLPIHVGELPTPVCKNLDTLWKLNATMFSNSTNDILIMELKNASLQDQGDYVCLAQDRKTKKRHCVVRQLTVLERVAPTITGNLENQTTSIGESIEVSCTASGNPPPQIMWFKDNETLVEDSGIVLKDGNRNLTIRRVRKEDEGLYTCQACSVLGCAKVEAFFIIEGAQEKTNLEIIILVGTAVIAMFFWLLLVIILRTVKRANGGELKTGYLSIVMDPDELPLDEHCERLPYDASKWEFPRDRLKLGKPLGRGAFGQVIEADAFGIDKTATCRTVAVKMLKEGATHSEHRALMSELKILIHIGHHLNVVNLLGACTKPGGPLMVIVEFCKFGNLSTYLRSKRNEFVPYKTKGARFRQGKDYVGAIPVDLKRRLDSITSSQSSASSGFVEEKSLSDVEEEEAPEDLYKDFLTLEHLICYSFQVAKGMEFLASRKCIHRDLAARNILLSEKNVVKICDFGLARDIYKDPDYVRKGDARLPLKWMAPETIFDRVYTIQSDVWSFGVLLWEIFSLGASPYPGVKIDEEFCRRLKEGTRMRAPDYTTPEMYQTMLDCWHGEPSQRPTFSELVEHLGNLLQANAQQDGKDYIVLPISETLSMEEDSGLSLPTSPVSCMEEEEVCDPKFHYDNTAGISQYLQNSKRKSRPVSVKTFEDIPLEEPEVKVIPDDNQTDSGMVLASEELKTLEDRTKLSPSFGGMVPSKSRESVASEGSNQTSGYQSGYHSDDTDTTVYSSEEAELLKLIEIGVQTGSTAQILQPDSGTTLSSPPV
Chain of human FGFR2 (P21802 22-821): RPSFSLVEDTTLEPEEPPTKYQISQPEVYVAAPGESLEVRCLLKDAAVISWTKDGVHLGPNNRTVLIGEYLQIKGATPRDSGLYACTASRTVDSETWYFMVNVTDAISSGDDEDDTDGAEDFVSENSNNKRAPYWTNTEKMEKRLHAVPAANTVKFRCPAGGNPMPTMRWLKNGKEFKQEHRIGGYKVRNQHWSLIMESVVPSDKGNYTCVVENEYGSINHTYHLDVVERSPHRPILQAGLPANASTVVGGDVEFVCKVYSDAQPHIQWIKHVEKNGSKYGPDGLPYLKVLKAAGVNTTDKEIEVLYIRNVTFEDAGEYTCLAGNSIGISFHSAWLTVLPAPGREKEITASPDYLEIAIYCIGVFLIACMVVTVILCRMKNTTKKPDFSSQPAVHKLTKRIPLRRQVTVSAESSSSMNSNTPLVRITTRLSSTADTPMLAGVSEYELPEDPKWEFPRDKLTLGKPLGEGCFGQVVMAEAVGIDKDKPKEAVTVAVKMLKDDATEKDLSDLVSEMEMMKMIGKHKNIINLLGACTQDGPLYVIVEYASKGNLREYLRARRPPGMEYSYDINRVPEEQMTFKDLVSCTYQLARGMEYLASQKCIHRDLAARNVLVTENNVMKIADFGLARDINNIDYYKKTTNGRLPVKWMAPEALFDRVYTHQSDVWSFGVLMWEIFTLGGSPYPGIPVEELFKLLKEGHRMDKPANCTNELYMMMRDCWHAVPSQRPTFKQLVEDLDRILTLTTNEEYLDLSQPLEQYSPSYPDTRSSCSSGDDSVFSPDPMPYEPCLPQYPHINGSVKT

For orientation: IC50 means the point on the concentration scale where inhibition reaches its midpoint. Lower therefore signals greater potency. On to `Cn1cc(-c2ccn3c(-c4cc(NCC(C)(C)O)nc(-c5ccc(F)cc5F)c4)cnc3c2)cn1` [Compound 9], for which the concentration for half-maximal inhibition (IC50) was determined as 4.92 nM against human FGFR2 and 3.73 nM against human VEGFR2.
Turning to `Cn1cc(-c2ccn3c(-c4cc(NC5CCOCC5)nc(-c5ccc(F)cc5F)c4)cnc3c2)cn1` [Compound 10], at human FGFR2, the concentration for half-maximal inhibition (IC50) was 17.1 nM.
As to `Cn1cc(-c2ccn3c(-c4cc(NCC5COC(C)(C)O5)nc(-c5ccc(F)cc5F)c4)cnc3c2)cn1` (stereo not drawn) [Compound 11], the values for the half-inhibitory concentration (IC50) against human FGFR2 and at human VEGFR2 were 2.27 nM and 7.57 nM, respectively.
Take `Cn1cc(-c2ccn3c(-c4cc(NS(C)(=O)=O)cc(-c5ccc(F)cc5F)n4)cnc3c2)cn1` [Formate of compound C, reference compound]: the values for the IC50 at human FGFR1 and at human VEGFR2 were 724 nM and 5580 nM, respectively.
For orientation: AUC(0-inf) means the area under the concentration-time curve extrapolated to infinity. As a reminder, the AUC(0-t) is exposure summed from dosing to a finite time, without extrapolation to infinity. Higher therefore signals more exposure. Usually half-life stands for how long it takes for the measured level to halve. Higher therefore signals slow loss. The term bioavailability denotes the share of a dose that reaches the circulation, judged against a reference dose that is usually intravenous. A word on the Tmax: it is the time at which the peak concentration occurs. The Cmax is the highest concentration seen after dosing. `Cn1cc(-c2ccc3c(c2)ncn3-c2cc(NS(=O)(=O)C3CC3)cc(-c3ccc(F)cc3F)c2)cn1` [Trifluoroacetate of compound A, reference compound]: the IC50 against human FGFR1 stood at 22.3 nM. Also, in data set [1] (IV 0.2 mg/kg), the Tlast came out at 4.00 h, the area under the curve AUC(0-inf) worked out at 0.717 µM·h, the exposure AUC(0-t) came to 0.663 µM·h and the clearance turned out to be 9.2 mL/min/kg. For the same molecule, in data set [1] (IV 0.2 mg/kg), the half-life was 1.08 h, the MRT last turned out to be 1.21 h, the Vd was found to be 0.85 L/kg and the C0 was 563 nM. For the same molecule, in data set [1] (PO 1 mg/kg), the Tlast is recorded as 8.00 h, the total exposure AUC(0-inf) amounted to 1.44 µM·h, the AUC(0-t) stood at 1.41 µM·h and the Tmax stood at 1 h. In data set [1] (PO 1 mg/kg), the half-life is 1.4 h, the MRT last stood at 2.76 h and the maximum concentration (Cmax) turned out to be 469 nM. The bioavailability in data set [1] (PO 1 mg/kg vs IV 0.2 mg/kg) turned out to be 40.3%.
`Cn1cc(-c2ccc3c(c2)ncn3-c2cc(NS(C)(=O)=O)cc(-c3ccc(F)cc3F)c2)cn1` [Trifluoroacetate of compound B, reference compound]: the half-maximal inhibitory concentration (IC50) on human FGFR2 turned out to be 22.6 nM; at human VEGFR2, 11.8 nM.
For the molecule `Cn1cc(-c2ccn3c(-c4cc(NS(=O)(=O)C5CC5)nc(-c5ccc(F)cc5F)c4)cnc3c2)cn1` [Trifluoroacetate salt of compound 1], at human FGFR1, the IC50 came out at 4.55 nM. The molecule also gave a 50% inhibitory concentration (IC50) against human FGFR2 of 2.86 nM. In data set [1] (IV 2 mg/kg), this molecule came in with a Tlast of 8.00 h, a total exposure AUC(0-inf) of 13.7 µM·h, an AUC(0-t) of 13.3 µM·h and a clearance of 4.82 mL/min/kg. Further, in data set [1] (IV 2 mg/kg), the half-life was 1.6 h, the MRT last was 2.07 h, the Vd turned out to be 0.667 L/kg and the C0 is 7530 nM. For the same molecule, in data set [1] (IV, mice), the “AUC of intravenous drug exposure compared with the trifluoroacetate of control compound A” value was “doubled” and the “plasma clearance rate compared with the trifluoroacetate of control compound A” value was “nearly decreased the plasma clearance rate by 1 time”. In data set [1] (PO 10 mg/kg), the Tlast was 8.00 h, the AUC(0-inf) stood at 26.9 µM·h, the AUC(0-t) worked out at 23.6 µM·h and the Tmax came to 1 h. Moreover, in data set [1] (PO 10 mg/kg), the half-life is 2.5 h, the MRT last was 3.12 h and the Cmax stood at 5300 nM. Further, the “oral absorption drug exposure compared with the trifluoroacetate of control compound A” value in data set [1] (PO, mice) is given as “nearly doubled”. Moreover, the bioavailability in data set [1] (PO 10 mg/kg vs IV 2 mg/kg) was found to be 39.4%. On human VEGFR2, this molecule gave an IC50 of 3.82 nM.
On to `Cc1cc(F)ccc1-c1cc(-c2cnc3cc(-c4cnn(C)c4)ccn23)cc(NS(=O)(=O)C2CC2)n1` [Trifluoroacetate salt of compound 2], for which the IC50 came out at 46.1 nM against human FGFR2 and 67.3 nM against human VEGFR2.
For `CCOC(=O)Nc1cc(-c2cnc3cc(-c4cnn(C)c4)ccn23)cc(-c2ccc(F)cc2F)n1` [Trifluoroacetate salt of compound 3] the same measures were 3.26 nM and 1.99 nM.
In the case of `CCOC(=O)Nc1cc(-c2cnc3cc(-c4cnn(C)c4)ccn23)cc(-c2ccc(F)cc2C)n1` [Trifluoroacetate salt of compound 4], the half-inhibitory concentration (IC50) against human FGFR2 is 45.2 nM; against human VEGFR2, 24.3 nM.
On the same counts, the results for `CCS(=O)(=O)Nc1cc(-c2cnc3cc(-c4cnn(C)c4)ccn23)cc(-c2ccc(F)cc2F)n1` [Trifluoroacetate salt of compound 6] are 7.36 nM and 8.09 nM.
Molecule `Cn1cc(-c2ccn3c(-c4cc(NS(C)(=O)=O)nc(-c5ccc(F)cc5F)c4)cnc3c2)cn1` [Trifluoroacetate salt of compound 7] displayed an IC50 at human FGFR2 of 3.22 nM. Further, in data set [2], the “T/C (%) (relative tumor proliferation rate) D25” value came out at 31% and the “TGI (%) (tumor growth inhibition rate) D25” value was 69%. In data set [1] (IV 0.2 mg/kg), this molecule returned a Tlast of 4.00 h, an AUC(0-inf) of 0.871 µM·h, an AUC(0-t) of 0.81 µM·h and a clearance of 7.96 mL/min/kg. Moreover, in data set [1] (IV 0.2 mg/kg), the half-life was 0.968 h, the MRT last came out at 1.08 h, the Vd is 0.661 L/kg and the C0 turned out to be 735 nM. Also, in data set [1] (PO 1 mg/kg), the Tlast came out at 8.00 h, the total exposure AUC(0-inf) stood at 2.58 µM·h, the AUC(0-t) stood at 2.53 µM·h and the Tmax is 1 h. Moreover, in data set [1] (PO 1 mg/kg), the half-life is 1.33 h, the MRT last worked out at 2.35 h and the peak concentration (Cmax) worked out at 973 nM. In data set [1] (PO 1 mg/kg vs IV 0.2 mg/kg), the bioavailability was 59.3%. On human VEGFR2, this molecule showed an IC50 of 2.94 nM.
In the case of `CCCS(=O)(=O)Nc1cc(-c2cnc3cc(-c4cnn(C)c4)ccn23)cc(-c2ccc(F)cc2F)n1` [Trifluoroacetate salt of compound 8], the IC50 against human FGFR2 turned out to be 7.18 nM; against human VEGFR2 it was 14.7 nM.
In the case of `CCOC(=O)Nc1cc(-c2cnc3cc(-c4cnn(C)c4C)ccn23)cc(-c2ccc(F)cc2F)n1` [Trifluoroacetate salt of compound 12], the values for the IC50 at human FGFR2 and on human VEGFR2 were 19.4 nM and 9.27 nM, respectively.
Molecule `Cc1c(-c2ccn3c(-c4cc(NS(C)(=O)=O)nc(-c5ccc(F)cc5F)c4)cnc3c2)cnn1C` [Trifluoroacetate salt of compound 13] yielded an IC50 on human VEGFR2 of 11.1 nM.
